Paper PMC8772704, “Quantification of Fosfomycin in Combination with Nine Antibiotics in Human Plasma and Cation-Adjusted Mueller-Hinton II Broth via LCMS” (Antibiotics, 2022)

Legend:
[1] = Long-term storage stability of antibiotics in combination with fosfomycin spiked in plasma/CAMHB (−30 °C, −80 °C); assay type: physicochemical; details: for Stability verdict (within ±15% of nominal): CAMHB samples stored at −30 °C; for Mean accuracy (%), Table S15 / Mean accuracy (%), Table S17 / Mean accuracy (%), Table S16 / Mean accuracy (%), Table S18: CAMHB; for Mean accuracy (%), Table S15 / Mean accuracy (%), Table S17 / Mean accuracy (%), Table S16 / Mean accuracy (%), Table S18 / Mean accuracy (%), Table S11 / Mean accuracy (%), Table S13 / Mean accuracy (%), Table S12 / Mean accuracy (%), Table S14: combination with fosfomycin; for Mean accuracy (%), Table S15 / Mean accuracy (%), Table S11: 2 weeks at -30 °C; for Mean accuracy (%), Table S17 / Mean accuracy (%), Table S13: 2 weeks at -80 °C; for Mean accuracy (%), Table S16 / Mean accuracy (%), Table S12: 4 weeks at -30 °C; for Mean accuracy (%), Table S18 / Mean accuracy (%), Table S14: 4 weeks at -80 °C
Description: (§1) The stability of fosfomycin in combination with other antibiotics in plasma/CAMHB was evaluated under various operational conditions. Spiked plasma/CAMHB samples were evaluated at 7 h and 15 h in the autosampler at 4 °C. Long-term stability was evaluated up to 4 weeks of antibiotic-spiked plasma/CAMHB samples at LQC, MQC, and HQC concentrations stored at −30 °C and −80 °C.

[2] = 32-day stability of stock solutions stored at −80 °C; assay type: physicochemical; details: stock solution stored at -80 °C; peak area Day 32 vs Day 1
Description: Stability of stock solutions
All stock solutions of antibiotics and their corresponding stable-isotope variants were measured prior to cold storage at -80 °C and tested at 32 days later.
Stability was determined by comparing the peak area of each drug between its Day 1 and Day 32 measurement. Acceptable criteria for stability was met if the […]

[3] = Autosampler stability at 4 °C of extracted antibiotic-spiked plasma/CAMHB samples; details: for Mean accuracy (%), Table S8 / Mean accuracy (%), Table S10: CAMHB extracted samples; for Mean accuracy (%), Table S8 / Mean accuracy (%), Table S7: 7 h autosampler 4 °C; for Mean accuracy (%), Table S10 / Mean accuracy (%), Table S9: 15 h autosampler 4 °C; for Mean accuracy (%), Table S7 / Mean accuracy (%), Table S9: plasma extracted samples
Description: as §1

[4] = HQC: nominal mg/L CAZ 150, FEP 200, PIP 250, ATM 300, MEM 200, DOR 175, LVX 30, CEFT 250, TZB 87.5, TGC 20, AVI 30, FOF 1000
[5] = LQC: nominal 1 mg/L (levofloxacin, avibactam 0.5; fosfomycin 10)
[6] = MQC: nominal mg/L CAZ 75, FEP 100, PIP 150, ATM 150, MEM 100, DOR 87.5, LVX 15, CEFT 125, TZB 43.75, TGC 10, AVI 15, FOF 500

Compound	Mean accuracy (%), Table S15 ([1]; HQC (nominal as E15)) [%]	Mean accuracy (%), Table S15 ([1]; LQC (nominal as E13)) [%]	Mean accuracy (%), Table S15 ([1]; MQC (nominal as E14)) [%]	Mean accuracy (%), Table S17 ([1]; HQC (nominal as E15)) [%]	Mean accuracy (%), Table S17 ([1]; LQC (nominal as E13)) [%]	Mean accuracy (%), Table S17 ([1]; MQC (nominal as E14)) [%]	Mean accuracy (%), Table S16 ([1]; HQC (nominal as E15)) [%]	Mean accuracy (%), Table S16 ([1]; LQC (nominal as E13)) [%]	Mean accuracy (%), Table S16 ([1]; MQC (nominal as E14)) [%]	Mean accuracy (%), Table S18 ([1]; HQC (nominal as E15)) [%]	Mean accuracy (%), Table S18 ([1]; LQC (nominal as E13)) [%]	Mean accuracy (%), Table S18 ([1]; MQC (nominal as E14)) [%]	Mean accuracy (%), Table S11 ([1]; plasma, HQC (nominal as E15)) [%]	Mean accuracy (%), Table S11 ([1]; plasma, LQC (nominal as E13)) [%]	Mean accuracy (%), Table S11 ([1]; plasma, MQC (nominal as E14)) [%]	Mean accuracy (%), Table S13 ([1]; plasma, HQC (nominal as E15)) [%]	Mean accuracy (%), Table S13 ([1]; plasma, LQC (nominal as E13)) [%]	Mean accuracy (%), Table S13 ([1]; plasma, MQC (nominal as E14)) [%]	Mean accuracy (%), Table S12 ([1]; plasma, LQC (nominal as E13)) [%]	Mean accuracy (%), Table S14 ([1]; plasma, LQC (nominal as E13)) [%]	also measured
C[C@@H](O)[C@H]1C(=O)N2C(C(=O)O)=C(S[C@@H]3CN[C@H](CNS(N)(=O)=O)C3)[C@H](C)[C@H]12 [Doripenem, doripenem]	82.4	73.1	77.1	100.1	104.0	103.9	64.1	64.6	60.6	105.8	99.1	104.7	98.0	91.0	97.0	98.3	100.6	96.9	100.0	99.2	Stability verdict (within ±15% of nominal) ([1]; 2 weeks): instability; Stability verdict (within ±15% of nominal) ([1]; 4 weeks): instability; Mean accuracy (%), Table S12 ([1]; plasma, HQC (nominal as E15)): 102.4%; Mean accuracy (%), Table S12 ([1]; plasma, MQC (nominal as E14)): 103.1%; Mean accuracy (%), Table S14 ([1]; plasma, HQC (nominal as E15)): 106.3%; Mean accuracy (%), Table S14 ([1]; plasma, MQC (nominal as E14)): 106.9%; 32 Day Stability (%) [2]: 99.13%; Mean accuracy (%), Table S8 ([3]; HQC (nominal as E15)): 103.1%; Mean accuracy (%), Table S8 ([3]; LQC (nominal as E13)): 104.8%; Mean accuracy (%), Table S8 ([3]; MQC (nominal as E14)): 105.2%; Mean accuracy (%), Table S10 ([3]; HQC (nominal as E15)): 103.0%; Mean accuracy (%), Table S10 ([3]; LQC (nominal as E13)): 108.0%; Mean accuracy (%), Table S10 ([3]; MQC (nominal as E14)): 111.3%; Mean accuracy (%), Table S7 [3, 4]: 98.9%; Mean accuracy (%), Table S7 [3, 5]: 104.0%; Mean accuracy (%), Table S7 [3, 6]: 100.7%
CCN1CCN(C(=O)N[C@@H](C(=O)N[C@@H]2C(=O)N3[C@@H]2SC(C)(C)[C@@H]3C(=O)O)c2ccccc2)C(=O)C1=O [Piperacillin, piperacillin]	89.0	106.0	89.5	89.6	111.6	92.6	69.6	90.6	67.5	87.6	109.4	90.6	88.5	112.6	92.7	88.6	109.5	93.0	106.0	111.6	Stability verdict (within ±15% of nominal) ([1]; 4 weeks): instability; Stability data ([1]; plasma, 2-week and 4-week intervals): 86–88%; 32 Day Stability (%) [2]: 100.48%; Mean accuracy (%), Table S8 ([3]; HQC (nominal as E15)): 89.6%; Mean accuracy (%), Table S8 ([3]; LQC (nominal as E13)): 113.7%; Mean accuracy (%), Table S8 ([3]; MQC (nominal as E14)): 86.7%; Mean accuracy (%), Table S10 ([3]; HQC (nominal as E15)): 90.6%; Mean accuracy (%), Table S10 ([3]; LQC (nominal as E13)): 112.7%; Mean accuracy (%), Table S10 ([3]; MQC (nominal as E14)): 87.6%; Mean accuracy (%), Table S7 [3, 4]: 87.5%; Mean accuracy (%), Table S7 [3, 5]: 109.5%; Mean accuracy (%), Table S7 [3, 6]: 84.0%; Mean accuracy (%), Table S9 ([3]; HQC (nominal as E15)): 89.6%; Mean accuracy (%), Table S9 ([3]; LQC (nominal as E13)): 109.9%; Mean accuracy (%), Table S9 ([3]; MQC (nominal as E14)): 86.8%
CN(C)c1cc(NC(=O)CNC(C)(C)C)c(O)c2c1C[C@H]1C[C@H]3[C@H](N(C)C)C(O)=C(C(N)=O)C(=O)[C@@]3(O)C(O)=C1C2=O [Tigecycline, tigecycline]	87.2	98.8	87.3	102.3	98.9	106.1	91.2	87.0	100.6	91.0	87.6	95.3	102.5	111.9	98.9	107.8	109.8	100.1	97.8	96.9	Mean accuracy (%), Table S12 ([1]; plasma, HQC (nominal as E15)): 110.7%; Mean accuracy (%), Table S12 ([1]; plasma, MQC (nominal as E14)): 102.8%; Mean accuracy (%), Table S14 ([1]; plasma, HQC (nominal as E15)): 112.3%; Mean accuracy (%), Table S14 ([1]; plasma, MQC (nominal as E14)): 105.0%; 32 Day Stability (%) [2]: 102.57%; Mean accuracy (%), Table S8 ([3]; HQC (nominal as E15)): 103.5%; Mean accuracy (%), Table S8 ([3]; LQC (nominal as E13)): 100.6%; Mean accuracy (%), Table S8 ([3]; MQC (nominal as E14)): 103.1%; Mean accuracy (%), Table S10 ([3]; HQC (nominal as E15)): 103.2%; Mean accuracy (%), Table S10 ([3]; LQC (nominal as E13)): 101.8%; Mean accuracy (%), Table S10 ([3]; MQC (nominal as E14)): 100.2%; Mean accuracy (%), Table S7 [3, 4]: 110.0%; Mean accuracy (%), Table S7 [3, 5]: 106.7%; Mean accuracy (%), Table S7 [3, 6]: 112.7%; Mean accuracy (%), Table S9 ([3]; HQC (nominal as E15)): 111.0%; Mean accuracy (%), Table S9 ([3]; LQC (nominal as E13)): 105.1%; Mean accuracy (%), Table S9 ([3]; MQC (nominal as E14)): 106.3%
